In patent US8609686B2, “Substituted azabicyclic compounds and the use thereof” (Bayer Intellectual Property GmbH, priority 2007, dated 2013):

Legend:
Type in all cases: cell-based
adenosine A1 receptor = molecular target: T1, adenosine A1 receptor (Homo sapiens, UniProt P30542); assay: Indirect determination of adenosine agonism by way of gene expression (cAMP-dependent luciferase reporter), A1 cells; details: stably transfected CHO cells; 1 μM forskolin; concentration at which 50% of the luciferase response is inhibited
T1 construct: expressed in transfected cells; host or cells: CHO (Chinese Hamster Ovary)
T1 sequence (P30542 1-326): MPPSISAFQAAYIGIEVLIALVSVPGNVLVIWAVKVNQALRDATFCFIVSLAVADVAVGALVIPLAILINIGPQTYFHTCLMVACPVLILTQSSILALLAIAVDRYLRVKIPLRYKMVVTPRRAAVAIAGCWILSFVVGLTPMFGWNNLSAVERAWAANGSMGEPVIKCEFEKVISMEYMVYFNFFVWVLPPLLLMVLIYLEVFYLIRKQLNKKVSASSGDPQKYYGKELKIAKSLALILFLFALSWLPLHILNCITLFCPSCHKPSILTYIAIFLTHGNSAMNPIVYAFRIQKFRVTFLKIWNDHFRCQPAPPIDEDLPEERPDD
Source text: (§1) B-1. Indirect determination of the adenosine agonism by way of gene expression Cells of the CHO (Chinese Hamster Ovary) permanent line are transfected stably with the cDNA for the adenosine receptor subtypes A1, A2a and A2b. The adenosine A1 receptors are coupled to the adenylate cyclase by way of Gi proteins, while the adenosine A2a and A2b receptors are coupled by way of Gs proteins. In correspondence with this, the formation of cAMP in the cell is inhibited or stimulated, respectively. After that, expression of the luciferase is modulated by way of a cAMP-dependent promoter. The luciferase test is optimized, with the aim of high sensitivity and reproducibility, low variance and good suitability for implementation on a robot system, by varying several test parameters, such as cell density, duration of the growth phase and the test incubation, forskolin concentration and medium composition. The following test protocol is used for pharmacologically characterizing cells and for the robot-assisted substance screening:
(§2) The stock cultures are grown, at 37° C. and under 5% CO2, in DMEM/F12 medium containing 10% FCS (fetal calf serum) and in each case split 1:10 after 2-3 days. Test cultures are seeded in 384-well plates with 2000 cells per well and grown at 37° C. for approx. 48 hours. The medium is then replaced with a physiological sodium chloride solution (130 mM sodium chloride, 5 mM potassium chloride, 2 mM calcium chloride, 20 mM HEPES, 1 mM magnesium chloride hexahydrate, 5 mM sodium bicarbonate, pH 7.4). The substances to be tested, which are dissolved in DMSO, are pipetted into the test cultures (maximum final concentration of DMSO in the test mixture: 0.5%) in a dilution series of from 5×10^−11M to 3×10^−6M (final concentration). 10 minutes later, forskolin is added to the A1 cells and all the cultures are subsequently incubated at 37° C. for four hours. After that, 35 μl of a solution which is composed of 50% lysis reagent (30 mM disodium hydrogenphosphate, 10% glycerol, 3% TritonX100, 25 mM TrisHCl, 2 mM dithiotreitol (DTT), pH 7.8) and 50% luciferase substrate solution (2.5 mM ATP, 0.5 mM luciferin, 0.1 mM coenzyme A, 10 mM tricine, 1.35 mM magnesium sulfate, 15 mM DTT, pH 7.8) are added to the test cultures, which are shaken for approx. 1 minute and the luciferase activity is measured using a camera system. The EC50 values are determined, i.e., the concentrations at which 50% of the luciferase response is inhibited in the case of the A1 cell, and, respectively, 50% of the maximum stimulation with the corresponding substance is achieved in the case of the A2b and A2a cells. […] Pharmacol., 357, 1-9 (1998)).
(§3) Table 1 below lists the EC50 values of representative working examples for the receptor stimulation on adenosine A1, A2a and A2b receptor subtypes: […]

adenosine A2a receptor = molecular target: T2, adenosine A2a receptor (Homo sapiens, UniProt P29274); assay: Indirect determination of adenosine agonism by way of gene expression (cAMP-dependent luciferase reporter), A2a cells; details: stably transfected CHO cells; 50% of the maximum stimulation of luciferase
T2 construct: expressed in transfected cells; host or cells: CHO (Chinese Hamster Ovary)
T2 sequence (P29274 whole entry): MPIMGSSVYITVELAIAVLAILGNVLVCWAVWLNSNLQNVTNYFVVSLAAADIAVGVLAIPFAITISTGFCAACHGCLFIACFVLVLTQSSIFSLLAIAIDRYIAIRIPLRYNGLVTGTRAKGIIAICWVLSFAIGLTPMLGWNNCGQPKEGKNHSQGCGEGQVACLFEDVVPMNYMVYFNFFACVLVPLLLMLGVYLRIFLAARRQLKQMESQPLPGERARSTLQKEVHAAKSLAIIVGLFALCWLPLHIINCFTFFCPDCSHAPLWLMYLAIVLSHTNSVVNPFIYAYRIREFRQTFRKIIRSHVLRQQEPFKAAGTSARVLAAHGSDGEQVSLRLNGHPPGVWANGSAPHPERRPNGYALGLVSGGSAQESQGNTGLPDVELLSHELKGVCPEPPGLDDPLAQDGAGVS
Source text: as §1, §2, §3

adenosine A2b receptor = molecular target: T3, adenosine A2b receptor (Homo sapiens, UniProt P29275); assay: Indirect determination of adenosine agonism by way of gene expression (cAMP-dependent luciferase reporter), A2b cells; details: stably transfected CHO cells; 50% of the maximum stimulation of luciferase
T3 construct: expressed in transfected cells; host or cells: CHO (Chinese Hamster Ovary)
T3 sequence (P29275 1-332): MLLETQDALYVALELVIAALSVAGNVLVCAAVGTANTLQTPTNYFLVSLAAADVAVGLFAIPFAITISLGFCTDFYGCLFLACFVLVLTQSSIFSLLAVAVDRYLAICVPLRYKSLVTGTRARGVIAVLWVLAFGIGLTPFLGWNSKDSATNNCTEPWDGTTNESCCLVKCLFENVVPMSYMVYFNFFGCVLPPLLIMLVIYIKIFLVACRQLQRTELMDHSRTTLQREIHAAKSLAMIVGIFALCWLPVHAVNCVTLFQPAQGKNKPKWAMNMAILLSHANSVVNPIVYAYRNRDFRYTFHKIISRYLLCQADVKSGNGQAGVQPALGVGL
Source text: as §1, §2, §3

SMILES	EC50 (adenosine A1 receptor) [nM]	EC50 (adenosine A2a receptor) [nM]	EC50 (adenosine A2b receptor) [nM]
COC(=O)c1c(N)c2c(-c3ccccc3)c(C#N)c(SCc3csc(-c4ccc(Cl)cc4)n3)nc2n1C [Example 3]	5.3	> 3000	> 3000
COC(=O)c1[nH]c2nc(SCc3csc(-c4ccc(Cl)cc4)n3)c(C#N)c(-c3ccc(OCCO)cc3)c2c1N [Example 17, Methyl 3-amino-6-({[2-(4-chlorophenyl)-1,3-thiazol-4-yl]methyl}thio)-5-cyano-4-[4-(2-hydroxyethoxy)phenyl]-1H-pyrrolo[2,3-b]pyridine-2-carboxylate]	3.7	680	> 3000
COC(=O)Cn1c(C(=O)OC)c(N)c2c(-c3ccc(OCCO)cc3)c(C#N)c(SCc3csc(-c4ccc(Cl)cc4)n3)nc21 [Example 2]	1.7	150	1540
Cn1c(C(N)=O)c(N)c2c(-c3ccc(OCCO)cc3)c(C#N)c(SCc3csc(-c4ccc(Cl)cc4)n3)nc21 [Example 6]	0.3	1120	> 3000
Cn1c(C(N)=O)c(N)c2c(-c3ccc(OCCO)cc3)c(C#N)c(SCc3cccc(C(N)=O)c3)nc21 [Example 16, 3-Amino-6-[(3-carbamoylbenzyl)thio]-5-cyano-4-[4-(2-hydroxyethoxy)phenyl]-1-methyl-1H-pyrrolo[2,3-b]pyridine-2-carboxamide]	4.9	330	760
COC(=O)c1c(N)c2c(-c3ccc(OCCO)cc3)c(C#N)c(SCc3ccc(OC)nc3)nc2n1C [Example 5]	1.5	200	1000
COC(=O)c1c(N)c2c(-c3ccc(OC[C@@H](O)CO)cc3)c(C#N)c(SCc3coc(-c4ccc(Cl)cc4)n3)nc2n1C [Example 11]	14	600	> 3000
N#Cc1c(SCc2csc(-c3ccc(Cl)cc3)n2)nc2[nH]nc(N)c2c1-c1ccc(OCCO)cc1 [Example 21, 3-Amino-6-({[2-(4-chlorophenyl)-1,3-thiazol-4-yl]methyl}sulfanyl)-4-[4-(2-hydroxyethoxy)phenyl]-1H-pyrazolo[3,4-b]pyridine-5-carbonitrile]	10	> 3000	> 3000
CNC(=O)c1c(N)c2c(-c3ccc(OCCO)cc3)c(C#N)c(SCc3csc(-c4ccc(Cl)cc4)n3)nc2n1C [Example 7]	5	350	660
COC(=O)c1c(N)c2c(-c3ccc(OC[C@@H](O)CO)cc3)c(C#N)c(SCc3csc(-c4ccc(Cl)cc4)n3)nc2n1C [Example 12]	11	1600	> 3000
COC(=O)c1c(N)c2c(-c3ccc(OCCO)cc3)c(C#N)c(SCc3cccc(C#N)c3)nc2n1C [Example 4]	3	73	320
COC(=O)c1c(N)c2c(-c3ccc(OCCO)cc3)c(C#N)c(SCc3csc(-c4ccc(Cl)cc4)n3)nc2n1C [Example 1, Methyl 3-amino-6-({[2-(4-chlorophenyl)-1,3-thiazol-4-yl]methyl}thio)-5-cyano-4-[4-(2-hydroxyethoxy)phenyl]-1-methyl-1H-pyrrolo[2,3-b]pyridine-2-carboxylate]	0.8	170	550
COC(=O)c1c(N)c2c(-c3ccc(OCCO)cc3)c(C#N)c(SCc3cccc(C(N)=O)c3)nc2n1C [Example 15, Methyl 3-amino-6-[(3-carbamoylbenzyl)thio]-5-cyano-4-[4-(2-hydroxyethoxy)phenyl]-1-methyl-1H-pyrrolo[2,3-b]pyridine-2-carboxylate]	3.7	440	1330
